Test results published in PubChem BioAssay (NCI).
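48-hour exposure; five concentrations; linearly interpolated endpoints. TGI marks complete inhibition of growth.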

Columns and labels:
Experiment in all cases: NCI anticancer screen, dose series, 48 h
ACHN renal = test system: ACHN renal
DLD-1 colon = test system: DLD-1 colon
NCI-H226 lung = test system: NCI-H226 lung
OVCAR-3 ovarian = test system: OVCAR-3 ovarian
SK-OV-3 ovarian = test system: SK-OV-3 ovarian
SNB-78 CNS = test system: SNB-78 CNS
HCC-2998 colon = test system: HCC-2998 colon
MCF7 breast = test system: MCF7 breast
BT-549 breast = test system: BT-549 breast
DU-145 prostate = test system: DU-145 prostate
MDA-MB-435 = test system: MDA-MB-435

Row | Compound | TGI (ACHN renal) [µM] | TGI (DLD-1 colon) [µM] | TGI (NCI-H226 lung) [µM] | TGI (OVCAR-3 ovarian) [µM] | TGI (SK-OV-3 ovarian) [µM] | TGI (SNB-78 CNS) [µM] | TGI (HCC-2998 colon) [µM] | TGI (MCF7 breast) [µM] | TGI (BT-549 breast) [µM] | TGI (DU-145 prostate) [µM] | TGI (MDA-MB-435) [µM]
1 | C=C1c2c(cc3c(c2O)c(=O)c2ccccc2n3C)OC1(C)C | > 100 | > 100 | > 100 | > 100 | 97.2 | > 100 |  |  |  |  | 
2 | Cc1ccc(C(=O)C(C)N)cc1 (configuration not stated) | > 100 | > 100 | > 100 | > 100 | > 100 | > 100 | > 100 |  |  |  | 
3 | Cc1c(-c2cc3n(n2)C(c2cccs2)C(C#N)=C(c2ccccc2)N3)c(=O)n(-c2ccccc2)n1C (configuration not stated) |  | > 100 | > 100 | > 100 | > 100 | > 100 | > 100 | > 100 |  |  | 
4 | O=P(O)(O)C(CSc1ccccc1)P(=O)(O)O |  | > 100 | > 100 | > 69.2 | > 100 | > 100 | > 100 | > 100 |  |  | 
5 | CC(=O)c1ccc(Oc2ccc(/C(C)=N\N=C(N)N)cc2)cc1 | 17.4 | 14.3 |  | 4.89 | 9.25 | 16.6 | 20.8 |  |  |  | 
6 | CC(C)(C)[Si](C)(C)OCCCC#CCO | > 100 | > 100 |  |  | > 100 | > 100 | > 100 |  |  |  | 
7 | COc1ccc(C2SCC(=O)N2c2ccc(-c3ccc(-n4c(-c5ccccc5)nc5ccccc5c4=O)cc3)cc2)cc1 (configuration not stated) | > 100 |  | > 100 | 46.8 | > 100 |  | > 100 | > 100 | > 100 | > 100 | > 100
